Reference: patent US20220155322A1, “USE OF NATRIURETIC PEPTIDES TO ASSESS AND TREAT ACUTE KIDNEY INJURY” (Mayo Foundation for Medical Education and Research, priority 2019, published 2022)

Tests used:
Format in all cases: cell-based
[1] = test system: human primary renal proximal tubular epithelial cells (HRPTC); experiment: Oil immersion induced hypoxia/reoxygenation (H/R) apoptosis, Caspase 3/7 IncuCyte live imaging
Procedure: Oil Immersion Induced Hypoxia/Reoxygenation in vitro: HRPTC (ScienCell Research Laboratories; Carlsbad, Calif.) were seeded in 96-well plates and cultured for 1 day until 70-80% confluence. Passages 3-5 were used for experiments. Caspase 3/7 green apoptosis assay agent (Essen BioScience; Ann Arbor, Mich.) was added to the culture medium for detection of apoptosis. Plates were then transferred to a time-lapsed, live imaging system IncuCyte (Essen BioScience) for apoptosis monitoring for a total of 24 hours. H/R in cells was mimicked with mineral oil (Sigma, St Louis, Mo.) immersion (Meldrum et al., J Surg Res, 99:288-293, 2001). Cells were immersed in oil for 2 hours, washed twice, and placed in fresh medium containing vehicle (H/R group) or drugs. ANP, BNP, and CRRL269 were used at concentrations of 10^−8, 10^−7, or 10^−6 M. PKG (an important cGMP binding protein) activating analogue 8-pCPT-cGMP (Sigma; St. Louis, Mo.), which is specific for PKG and has low affinity for phosphodiesterases, was used at concentrations of 10^−6, 10^−5, or 10^−4 M. Cells were treated with 10^−6-, 5×10^−6-, or 1.5×10^−5 M PKG inhibitor KT-5823 (Abcam; Cambridge, Mass.) for 30 minutes before 10^−6 M CRRL269 was added. Cells without H/R stimulation were labeled as the negative control (Neg Ctrl) group. Apoptosis signals (e.g., apoptosis object counts) were analyzed with software provided by IncuCyte.

[2] = test system: human primary aortic vascular smooth muscle cells (HASMC); experiment: Intracellular calcium under ANGII stimulation (Fura-2); settings: pretreatment at 10^−9 or 10^−7 M for 5 minutes, ANGII 10^−8 or 10^−7 M
Procedure: Measurements of Intracellular Calcium in Vascular Smooth Muscle Cells: HASMC (ScienCell Research Laboratories; Carlsbad, Calif.) were cultured and maintained as instructed by the manufacturer. Cells at passage 4 or 5 were used for experiments. Calcium imaging was performed as described elsewhere (Chai et al., Cardiovasc Res, 100:151-159, 2013). Briefly, cells were seeded on a 25 mm round cover glass (Fisher Scientific; Pittsburgh, Pa.) at a density of 5×10^4 cells per slide. The slides had been pretreated with 0.5 N NaOH for 8 hours, rinsed with water, and sterilized before use. After overnight culturing, the slides with cells were assembled in a MS-02 Chamber (ALA Scientific Instrument; Farmingdale, N.Y.) and loaded with 3 μM fura-2 AM (Invitrogen; Carlsbad, Calif.) for 30 minutes in a 37° C. incubator. The chamber was then placed on the stage of an inverted Olympus IX71 microscope (Olympus America Inc.; Waltham, Mass.). The cells were maintained in 1 mL HASMC medium and treated with or without ANP, BNP, or CRRL269 at concentration of 10^−9 or 10^−7 M for 5 minutes before perfused with 5 mL medium containing ANGII (10^−8 or 10^−7 M). Intracellular Ca2^+ fluorescence signals were measured as a ratio of fluorescence intensities at 510 nm from excitations of 340/380 nm, using a Hamamatsu ORCA-R2 CCD camera with a Sutter LB-LS/17 light source. Baseline fluorescence was recorded after 5 minutes of treatment, and fluorescence images were acquired continuously during the ANGII perfusion. Background fluorescence was subtracted and the calcium signal (F) was normalized to baseline fluorescence (FO) and expressed as a ratio (F/FO) using MetaFluor software (Olympus America Inc.).

[3] = test system: human renal fibroblasts (HRF); experiment: Human renal fibroblast proliferation by cell counting; settings: CNP at 10^−7 M every 24 hours, cell count at 72 hours
Procedure: Human Renal Fibroblasts Proliferation by Cell Counting: Human renal fibroblasts (HRF, Cell Biologics; Chicago, Ill.) were counted and seeded into 48-well plates with complete medium, and then incubated at 37° C., 5% CO2 overnight. The culture medium was replaced with fresh medium containing PBS or CNP at concentrations of 10^−8 or 10^−7 M, and cells were cultured for 72 hours. Fresh CNP was added at 24 and 48 hours. At 72 hours, HRF were trypsinized, stained with 0.2% trypan blue, and counted using a Cedex XS Analyzer (Roche; Indianapolis, Ind.).

Nc1nc2c(nc(Sc3ccc(Cl)cc3)n2C2O[C@@H]3COP(=O)(O)O[C@H]3[C@H]2O)c(=O)[nH]1 (stereo in doubt) [8-pCPT-cGMP, reference compound]
apoptosis inhibition in HRPTC after H/R ([1]; 8-pCPT-cGMP at 10^−6 and 10^−5 M): mimicked the apoptosis inhibition

CC[C@H](C)[C@@H]1NC(=O)[C@H](CCCNC(=N)N)NC(=O)[C@H](CC(=O)O)NC(=O)[C@H](CCSC)NC(=O)[C@H](CCCNC(=N)N)NC(=O)CNC(=O)CNC(=O)[C@H](Cc2ccccc2)NC(=O)[C@@H](NC(=O)[C@H](CO)NC(=O)[C@H](CO)NC(=O)[C@H](CCCNC(=N)N)NC(=O)[C@H](CCCNC(=N)N)NC(=O)[C@H](CC(C)C)NC(=O)[C@@H](N)CO)CSSC[C@@H](C(=O)N[C@@H](CC(N)=O)C(=O)N[C@@H](CO)C(=O)N[C@@H](Cc2ccccc2)C(=O)N[C@@H](CCCNC(=N)N)C(=O)N[C@@H](Cc2ccc(O)cc2)C(=O)O)NC(=O)CNC(=O)[C@H](CC(C)C)NC(=O)CNC(=O)[C@H](CO)NC(=O)[C@H](CCC(N)=O)NC(=O)[C@H](C)NC(=O)CNC1=O [ANP, atrial natriuretic peptide, reference compound]
Ca2^+ enhancement by ANGII in HASMC [2]: suppressed

COC(=O)[C@@]1(OC)C[C@H]2O[C@]1(C)n1c3ccccc3c3c4c(c5c6ccccc6n2c5c31)C(=O)N(C)C4 [KT-5823, reference compound]
effect on antiapoptotic effects induced by CRRL269 ([1]; HRPTC, H/R, KT-5823 30 minutes before 10^−6 M CRRL269): abrogated

B-type natriuretic peptide [BNP, reference compound]
Ca2^+ enhancement by ANGII in HASMC [2]: suppressed

C-type natriuretic peptide (GLSKGCFGLKLDRIGSMSGLGC; listed as Homo sapiens) [CNP]
human renal fibroblast (HRF) proliferation [3]: suppressed
